Key:
Format in all cases: cell-based
[1] = system: HTT mRNA; assay: Splicing RT-qPCR assay (THP), Table 2A
[2] = system: HTT mRNA; assay: Splicing RT-qPCR assay, canonical (CJ) and alternative (AJ) junction mRNA, K562 cells; conditions: Homo sapiens, K562.3 cells, 24 hours; for AC50: read-out: HTT AJ (AC50, increase in AJ mRNA); for IC50: read-out: HTT CJ (IC50, decrease in CJ mRNA)
In short: (§1)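 RT-qPCR read-out: CJ and AJ isoforms quantified by ΔCt against GAPDH or GUSB, normalized to DMSO, and converted to % response. Windows in 96-well format (50,000 cells/well) were 4.0 ΔCt for MYB-CJ and 3 for MYB-AJ, and 3.5 ΔCt for HTT-CJ and 9 for HTT-AJ. Cells were dosed for 24 h, top 10 uM.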

[3] = system: MYB mRNA; assay: as above; conditions: Homo sapiens, K562.3 cells, 24 hours; for AC50: read-out: MYB AJ (AC50, increase in AJ mRNA); for IC50: read-out: MYB CJ (IC50, decrease in CJ mRNA)
In short: as §1

[4] = system: SH-SY5Y (human neuroblastoma) cells; assay: Cell viability, Cell Titer Glo 2.0 assay; conditions: read-out: Viability SHSY5Y.3 GI50
In short: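 CellTiter-Glo 2.0 luminescence read-out after 72 h compound exposure (37 °C, 5% CO2); medium-only wells as blank. DMSO 0.1% final.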

[5] = system: MYB mRNA; assay: Splicing RT-qPCR assay (THP), Table 2A
[6] = Table 2A (THP), AJ mRNA increase, read-out: HTT AJ (increase in alternative junction mRNA, AC50)
[7] = Table 2A (THP), CJ mRNA decrease, read-out: HTT CJ (decrease in canonical junction mRNA, IC50)
[8] = Table 2A (THP), AJ mRNA increase, read-out: MYB AJ (increase in alternative junction mRNA, AC50)
[9] = Table 2A (THP), CJ mRNA decrease, read-out: MYB CJ (decrease in canonical junction mRNA, IC50)

Structure (SMILES)	AC50 ([1]; Table 2A, THP, HTT alternative junction (AJ) mRNA, read-out: HTT AJ (AC50, increase in alternative junction mRNA)) [µM]	IC50 ([1]; Table 2A, THP, HTT canonical junction (CJ) mRNA, read-out: HTT CJ (IC50, decrease in canonical junction mRNA)) [µM]	AC50 [2] [µM]	IC50 [2] [µM]	AC50 [3] [µM]	IC50 [3] [µM]	GI50 [4] [µM]	AC50 ([5]; Table 2A, THP, MYB alternative junction (AJ) mRNA, read-out: MYB AJ (AC50, increase in alternative junction mRNA)) [µM]	IC50 ([5]; Table 2A, THP, MYB canonical junction (CJ) mRNA, read-out: MYB CJ (IC50, decrease in canonical junction mRNA)) [µM]	AC50 [1, 6] [µM]	IC50 [1, 7] [µM]	AC50 [5, 8] [µM]	IC50 [5, 9] [µM]
Cc1cn2cc(NC(=O)c3ccc(N4C[C@@H](C)N[C@@H](C)C4)c4c3nnn4C)cc(F)c2n1 [Compound 635]	1 to 10	1 to 10	1 to 10	1 to 10	0.1 to 1	0.1 to 1	1 to 10	0.1 to 1	0.1 to 1	–	–	–	–
CN[C@H]1CCN(c2c(O)cc(C(=O)Nc3cc(F)c4nc(C)cn4c3)c3nn(C)cc23)C1 [Compound 149, N-(8-fluoro-2-methyl-imidazo[1,2-a]pyridin-6-yl)-5-hydroxy-2-methyl-4-[(3S)-3-(methylamino)pyrrolidin-1-yl]-indazole-7-carboxamide]	–	–	> 10	1 to 10	1 to 10	1 to 10	1 to 10	–	–	> 10	> 10	> 10	1 to 10
Cc1cn2cc(NC(=O)c3c(F)cc(N4CCNCC4)c4occc34)cc(F)c2n1 [Compound 247, 5-fluoro-N-(8-fluoro-2-methylimidazo-[1,2-a]pyridin-6-yl)-7-piperazin-1-yl-benzofuran-4-carboxamide]	–	–	> 10	> 10	> 10	> 10	1 to 10	–	–	> 10	> 10	> 10	> 10
CCNC1CCN(c2ccc(C(=O)Nc3cc4cn(C)nc4cc3OC)c3[nH]ccc23)CC1 [Compound 178, 4-[4-(ethylamino)-1-piperidyl]-N-(6-methoxy-2-methyl-indazol-5-yl)-1H-indole-7-carboxamide]	–	–	> 10	> 10	> 10	> 10	1 to 10	–	–	> 10	> 10	> 10	> 10
CN[C@H]1CCN(c2ccc(C(=O)Nc3cc(F)c4nc(C)cn4c3)c3nn(C)cc23)[C@@H]1C (single isomer, unassigned) [Compound 154]	–	–	> 10	> 10	0.1 to 1	0.1 to 1	0.1 to 1	–	–	> 10	> 10	0.1 to 1	1 to 10
CN[C@@H]1CCN(c2ccc(C(=O)Nc3cc(F)c4nc(C)cn4c3)c3nn(C)cc23)[C@@H]1C (single isomer, unassigned) [Compound 153]	–	–	1 to 10	0.1 to 1	< 0.1	< 0.1	0.1 to 1	–	–	0.1 to 1	0.1 to 1	< 0.1	< 0.1
Cc1cn2cc(NC(=O)c3ccc(N4C[C@@H](C)N[C@@H](C)C4)c4[nH]c(C)nc34)cc(F)c2n1 [Compound 225, 7-[(3R,5S)-3,5-dimethylpiperazin-1-yl]-N-(8-fluoro-2-methylimidazo[1,2-a]pyridin-6-yl)-2-methyl-1H-1,3-benzodiazole-4-carboxamide]	–	–	1 to 10	1 to 10	1 to 10	1 to 10	1 to 10	–	–	> 10	1 to 10	1 to 10	0.1 to 1
CN[C@H]1C[C@@H](C)N(c2ccc(C(=O)Nc3cc(F)c4nc(C)cn4c3)c3nn(C)cc23)C1 (single isomer, unassigned) [Compound 128]	–	–	1 to 10	0.1 to 1	0.1 to 1	0.1 to 1	1 to 10	–	–	1 to 10	1 to 10	0.1 to 1	0.1 to 1
Cc1cn2cc(NC(=O)c3ccc(N4C[C@H](C)N[C@@H](C)C4)c4[nH]nnc34)cc(F)c2n1 [Compound 242, 7-[(3S,5S)-3,5-dimethylpiperazin-1-yl]-N-(8-fluoro-2-methyl-imidazo[1,2-a]pyridin-6-yl)-1H-benzotriazole-4-carboxamide]	–	–	> 10	> 10	> 10	> 10	> 10	–	–	> 10	> 10	> 10	> 10
